Laboratory results reported in PubChem BioAssay (NCI).
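Test compounds were applied to cells in 96-well plates for 48 hours at 5 doses. Here, GI50 denotes the concentration required for 50% inhibition of growth. TGI denotes the concentration required for complete inhibition of growth.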

Experiments:
Assay in all cases: NCI anticancer screen, dose series, 48 h
SN12C renal = test system: SN12C renal
KM12 colon = test system: KM12 colon
ACHN renal = test system: ACHN renal
OVCAR-3 ovarian = test system: OVCAR-3 ovarian
PC-3 prostate = test system: PC-3 prostate
IGROV1 ovarian = test system: IGROV1 ovarian
786-0 renal = test system: 786-0 renal
HS 578T breast = test system: HS 578T breast
MDA-MB-435 = test system: MDA-MB-435
NCI-H226 lung = test system: NCI-H226 lung
TK-10 renal = test system: TK-10 renal
OVCAR-8 ovarian = test system: OVCAR-8 ovarian
MDA-MB-231 breast = test system: MDA-MB-231 breast
SNB-75 CNS = test system: SNB-75 CNS
SNB-19 CNS = test system: SNB-19 CNS
UACC-62 melanoma = test system: UACC-62 melanoma
HCT-116 colon = test system: HCT-116 colon
HL-60(TB) leukemia = test system: HL-60(TB) leukemia
M14 melanoma = test system: M14 melanoma
UO-31 renal = test system: UO-31 renal
SF-295 CNS = test system: SF-295 CNS
MCF7 breast = test system: MCF7 breast
NCI-H460 lung = test system: NCI-H460 lung
HT29 colon = test system: HT29 colon
CCRF-CEM leukemia = test system: CCRF-CEM leukemia
MALME-3M melanoma = test system: MALME-3M melanoma
NCI/ADR-RES ovarian = test system: NCI/ADR-RES ovarian
SF-268 CNS = test system: SF-268 CNS
SK-MEL-28 melanoma = test system: SK-MEL-28 melanoma

COc1cccc(/C=N/NC(=O)c2ccc3nc(-c4ccc(Cl)cc4)[nH]c3c2)c1O
GI50 (SN12C renal): 1.08 µM
TGI (SN12C renal): 2.59 µM
GI50 (KM12 colon): 0.715 µM
TGI (KM12 colon): 1.88 µM
GI50 (ACHN renal): 1.32 µM
TGI (ACHN renal): 6.25 µM
GI50 (OVCAR-3 ovarian): 0.353 µM
TGI (OVCAR-3 ovarian): 1.05 µM
GI50 (PC-3 prostate): 1.35 µM
TGI (PC-3 prostate): 4.67 µM
GI50 (IGROV1 ovarian): 1.25 µM
TGI (IGROV1 ovarian): 3.14 µM
GI50 (786-0 renal): 1.06 µM
TGI (786-0 renal): 2.52 µM
GI50 (HS 578T breast): 0.705 µM
TGI (HS 578T breast): 2.9 µM
GI50 (MDA-MB-435): 1.01 µM
TGI (MDA-MB-435): 2.83 µM
GI50 (NCI-H226 lung): 1.65 µM
TGI (NCI-H226 lung): 4 µM
GI50 (TK-10 renal): 4.07 µM
TGI (TK-10 renal): 15.9 µM
GI50 (OVCAR-8 ovarian): 1.58 µM
TGI (OVCAR-8 ovarian): 4.39 µM
GI50 (MDA-MB-231 breast): 0.988 µM
TGI (MDA-MB-231 breast): 3.15 µM
GI50 (SNB-75 CNS): 0.231 µM
TGI (SNB-75 CNS): 1.38 µM
GI50 (SNB-19 CNS): 1.31 µM
TGI (SNB-19 CNS): 2.59 µM
GI50 (UACC-62 melanoma): 0.607 µM
TGI (UACC-62 melanoma): 1.77 µM
GI50 (HCT-116 colon): 1.19 µM
TGI (HCT-116 colon): 2.57 µM
GI50 (HL-60(TB) leukemia): 1.07 µM
TGI (HL-60(TB) leukemia): 4.63 µM
GI50 (M14 melanoma): 1.01 µM
TGI (M14 melanoma): 4.28 µM
GI50 (UO-31 renal): 1.01 µM
TGI (UO-31 renal): > 48 µM
GI50 (SF-295 CNS): 2.2 µM
TGI (SF-295 CNS): 5.46 µM
GI50 (MCF7 breast): 0.66 µM
TGI (MCF7 breast): 3.38 µM
GI50 (NCI-H460 lung): 1.34 µM
TGI (NCI-H460 lung): 2.77 µM
GI50 (HT29 colon): 4.17 µM
TGI (HT29 colon): 19.3 µM
GI50 (CCRF-CEM leukemia): 0.425 µM
TGI (CCRF-CEM leukemia): 3.77 µM
GI50 (MALME-3M melanoma): 1.36 µM
TGI (MALME-3M melanoma): 2.89 µM
GI50 (NCI/ADR-RES ovarian): > 100 µM
TGI (NCI/ADR-RES ovarian): > 100 µM
GI50 (SF-268 CNS): 0.484 µM
TGI (SF-268 CNS): 1.52 µM
GI50 (SK-MEL-28 melanoma): 1 µM
TGI (SK-MEL-28 melanoma): 2.93 µM
